According to ChEMBL document CHEMBL1201862, “PubChem BioAssay data set” (2004):
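96-well plates; 48 h exposure; 5 concentrations. Endpoints by linear interpolation between flanking doses. Not reached: highest tested concentration assigned. Abbreviation: GI50, concentration required for 50% inhibition of growth.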 Activity calls are given as the source filed them. Rule as the data show it: active = GI50 up to about 1.1 µM and inactive = higher.

Columns and labels:
Assay in all cases: DTP human tumour cell line panel, 48 h
UACC-62 = test system: UACC-62
UACC-257 = test system: UACC-257
HCT-15 = test system: HCT-15
MDA-MB-231 = test system: MDA-MB-231
RPMI-8226 = test system: RPMI-8226
COLO 205 = test system: COLO 205
OVCAR-4 = test system: OVCAR-4
HOP-62 = test system: HOP-62
SF-539 = test system: SF-539
HT-29 = test system: HT-29
EKVX = test system: EKVX
OVCAR-8 = test system: OVCAR-8
A549 = test system: A549
Malme-3M = test system: Malme-3M
NCI-H23 = test system: NCI-H23
SNB-19 = test system: SNB-19
HCT-116 = test system: HCT-116
HL-60 = test system: HL-60
NCI-H460 = test system: NCI-H460
PC-3 = test system: PC-3

SMILES	GI50 (UACC-62)	GI50 (UACC-257)	GI50 (HCT-15) [µM]	GI50 (MDA-MB-231)	GI50 (RPMI-8226)	GI50 (COLO 205)	GI50 (OVCAR-4)	GI50 (HOP-62)	GI50 (SF-539)	GI50 (HT-29)	GI50 (EKVX)	GI50 (OVCAR-8)	GI50 (A549)	GI50 (Malme-3M)	GI50 (NCI-H23)	GI50 (SNB-19)	GI50 (HCT-116)	GI50 (HL-60)	GI50 (NCI-H460)	GI50 (PC-3)
COc1ccc(-c2cc(O)c3cccnc3n2)cc1	23.2 µM (inactive)	26.2 µM (inactive)	34.3	> 100 µM (inactive)	22.9 µM (inactive)	19.1 µM (inactive)	67.6 µM (inactive)	44.3 µM (inactive)	42.4 µM (inactive)	15.7 µM (inactive)	> 100 µM (inactive)	57.1 µM (inactive)	53.7 µM (inactive)	31.9 µM (inactive)	34.7 µM (inactive)	78.5 µM (inactive)	–	–	–	–
Fc1cccc(Cl)c1C1SCc2nc3ccccc3n21 (centres undefined)	15.7 µM (inactive)	21.9 µM (inactive)	31.3	–	17.1 µM (inactive)	22.8 µM (inactive)	31.6 µM (inactive)	33.2 µM (inactive)	22.8 µM (inactive)	25.5 µM (inactive)	26.4 µM (inactive)	38.1 µM (inactive)	37.2 µM (inactive)	14.8 µM (inactive)	24.3 µM (inactive)	46.1 µM (inactive)	22.4 µM (inactive)	11 µM (inactive)	33 µM (inactive)	–
NC1=NC(c2ccccc2)CC(c2cc(Cl)cc(Br)c2O)=N1 (centres undefined)	10.1 µM (inactive)	14.7 µM (inactive)	7.64	–	7.31 µM (inactive)	13 µM (inactive)	15.4 µM (inactive)	10.4 µM (inactive)	12.2 µM (inactive)	13.5 µM (inactive)	10.1 µM (inactive)	17.1 µM (inactive)	14.6 µM (inactive)	4.55 µM (inactive)	10.8 µM (inactive)	17 µM (inactive)	12.1 µM (inactive)	3.28 µM (inactive)	12.4 µM (inactive)	–
COc1ccc(Sc2ccccc2[N+](=O)[O-])cc1	7.87 µM (inactive)	36.9 µM (inactive)	5.86	–	25.5 µM (inactive)	5.69 µM (inactive)	65.3 µM (inactive)	16.6 µM (inactive)	26 µM (inactive)	4.62 µM (inactive)	37 µM (inactive)	30.8 µM (inactive)	15.2 µM (inactive)	13 µM (inactive)	31.2 µM (inactive)	> 100 µM (inactive)	7.64 µM (inactive)	3.78 µM (inactive)	16.8 µM (inactive)	–
COc1cc(OC)c2c(O)cc(CC(C)O)cc2c1 (centres undefined)	> 100 µM (inactive)	> 100 µM (inactive)	> 100	–	> 100 µM (inactive)	> 100 µM (inactive)	> 100 µM (inactive)	> 100 µM (inactive)	> 100 µM (inactive)	92.5 µM (inactive)	> 100 µM (inactive)	> 100 µM (inactive)	> 100 µM (inactive)	> 100 µM (inactive)	> 100 µM (inactive)	> 100 µM (inactive)	> 100 µM (inactive)	78.9 µM (inactive)	> 100 µM (inactive)	–
O=C(N/N=C\c1ccc([N+](=O)[O-])cc1)Nc1ccccc1	> 100 µM (inactive)	> 100 µM (inactive)	> 100	–	> 100 µM (inactive)	> 100 µM (inactive)	> 100 µM (inactive)	> 100 µM (inactive)	–	> 100 µM (inactive)	–	> 100 µM (inactive)	–	> 100 µM (inactive)	> 100 µM (inactive)	> 100 µM (inactive)	> 100 µM (inactive)	> 100 µM (inactive)	> 100 µM (inactive)	> 100 µM (inactive)
